# From patent US7465798B2, “Methods and compositions for selectin inhibition” (Wyeth, priority 2003, dated 2008)
# Molecular target: T1, human P-selectin (Homo sapiens, UniProt P16109)
# T1 construct: truncated form of human P-selectin comprised of the lectin and EGF domains (P-LE)
# T1 sequence (P16109 42-198): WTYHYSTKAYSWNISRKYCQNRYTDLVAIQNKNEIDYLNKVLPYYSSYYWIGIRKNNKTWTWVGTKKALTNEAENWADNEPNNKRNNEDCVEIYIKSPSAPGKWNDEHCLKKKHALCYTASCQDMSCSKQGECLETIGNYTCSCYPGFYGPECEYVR
# Assay: Biacore inhibition of P-selectin binding to PSGL-1 (P-LE to immobilized SGP-3)
# Settings: at 1 mM
# Method: Compounds of the invention can be assayed for selectin inhibitory activity using any of the procedures known in the art. One convenient procedure is the determination of IC50 values for inhibition of P-selectin binding to P-selectin glycoprotein ligand-1 (PSGL-1) using Biacore.
# The Biacore 3000 is an instrument that uses surface plasmon resonance to detect binding of a solution phase analyte to an immobilized ligand on a sensor chip surface. The analyte sample is injected under flow using a microfluidic system. Binding of analyte to ligand causes a change in the angle of refracted light at the surface of the sensor chip, measured by the Biacore instrument in resonance units (RUs).
# SGP-3 is a purified sulfoglycopeptide form of human PSGL-1 that contains the P-selectin binding determinants (See Somers et al., 2000, Cell 103, 467-479). SGP-3 was biotinylated via amine chemistry at a unique C-terminal lysine residue and immobilized on streptavidin-coated SA sensor chip. […]
# The Biacore assay measures the signal in RU produced by binding of P-LE to SGP-3 in the presence and absence of inhibitors. Percent inhibition of binding is calculated by dividing the inhibited signal by the uninhibited signal subtracting this value from one then multiplying by one hundred. […] The data from this titration are plotted, RU values vs. concentration, and the IC50 is determined by extrapolation from the plot. […]
smiles,measurement,value
CC1(C)[C@@H](O[C@H]2O[C@H](C(=O)O)[C@@H](O)[C@H](O)[C@H]2O[C@@H]2O[C@H](C(=O)O)[C@@H](O)[C@H](O)[C@H]2O)CC[C@]2(C)[C@H]3C(=O)C=C4[C@@H]5C[C@@](C)(C(=O)O)CC[C@]5(C)CC[C@@]4(C)[C@]3(C)CC[C@@H]12 [Glycerrhizzin],percent inhibition of binding (positive control),50%
